# Assays:
# [1] = system: prothrombin time (PT) of normal citrated blood; assay: Three wet-chemistry Owren PT methods (Simple Simon PT) on normal citrated blood with added apixaban; type: biochemical
# Procedure: Experimental work was performed with the commercially available ambient room temperature coagulation instrument, Simple Simon P T Zafena A B, Linköping, Sweden, with functions described in EP 1 636 595 B2. One instrument or reader was used for each PT-method. Alternatively, the same instrument could be used for all PT-methods.
# The three instruments were used together standing next to one another on a laboratory bench in thermal equilibrium with the ambient room temperature of the laboratory.
# The PT-reagent was the one delivered together with lot N223M of the Simple Simon PT product, a reagent of Owren-type that thus contains effective amounts of thromboplastin, fibrinogen and FV (the thromboplastin of rabbit brain origin and the fibrinogen and the FV of bovine blood plasma origin). Other Owren type reagents could also be used.
# The reagent was in portions of 200 μL to which sample, citrated blood or citrated blood plasma, was added and mixed. The addition was by an end-to-end plastic capillary mounted at one end of a tubular body with a displacement mechanism in the other end, this to allow convenient mixing of sample and reagent. Such Mixxocaps with 10 μL capillaries are supplied with the Simple Simon PT product. To perform the experiments described, some Mixxocaps were fitted with 20 μL capillaries, or 5 μL capillaries instead of the 10 μL capillaries with which they were supplied by the manufacturer.
# These blood samples and a blood sample with an INR 2.3 were analyzed by Simple Simon PT using sample volumes of 20 μL, 10 μL and 5 μL in 200 μL reagents. […]
# [2] = system: prothrombin time (PT) of control plasma NKP; assay: 20 μL and 5 μL PT methods with reagent P161 at various added CaCl2, NKP + 500 μg/L apixaban; type: biochemical
# Procedure: With each reagent three samples were analyzed by the two PT methods of the anticoagulant assay, the 20 μL-method and the 5 μL-method. Two of the samples were reference samples, the control plasmas NKP and ZAP, with established INR values of 1.00 and 2.50, respectively.
# [3] = apixaban 63 μg/L in normal citrated blood
# [4] = apixaban 125 μg/L in normal citrated blood
# [5] = apixaban 250 μg/L in normal citrated blood
# [6] = apixaban 500 μg/L in normal citrated blood
# [7] = apixaban 714 μg/L in normal citrated blood
# [8] = apixaban 1000 μg/L in normal citrated blood
compound,measurement,setting,value
COc1ccc(-n2nc(C(N)=O)c3c2C(=O)N(c2ccc(N4CCCCC4=O)cc2)CC3)cc1 [apixaban],INR 10 μL sample,[1]; [3],1.19
same,INR 20 μL sample,[1]; [3],1.41
same,INRc 5 μL sample,[1]; [3],1.06
same,INRc 10 μL sample,[1]; [3],1.12
same,INRc 20 μL sample,[1]; [3],1.21
same,INRo,[1]; [3],0.96
same,ΔINRc 10 μL − 5 μL,[1]; [3],0.06
same,ΔINRc 20 μL − 5 μL,[1]; [3],0.15
same,INR 10 μL sample,[1]; [4],1.32
same,INR 20 μL sample,[1]; [4],1.75
same,INRc 5 μL sample,[1]; [4],1.16
same,INRc 10 μL sample,[1]; [4],1.26
same,INRc 20 μL sample,[1]; [4],1.49
same,INRo,[1]; [4],1.02
same,ΔINRc 10 μL − 5 μL,[1]; [4],0.10
same,ΔINRc 20 μL − 5 μL,[1]; [4],0.32
same,INR 5 μL sample,[1]; [5],1.32
same,INR 10 μL sample,[1]; [5],1.64
same,INR 20 μL sample,[1]; [5],2.61
same,INRc 5 μL sample,[1]; [5],1.39
same,INRc 10 μL sample,[1]; [5],1.60
same,INRc 20 μL sample,[1]; [5],2.18
same,INRo,[1]; [5],1.07
same,ΔINRc 10 μL − 5 μL,[1]; [5],0.21
same,ΔINRc 20 μL − 5 μL,[1]; [5],0.79
same,INR 5 μL sample,[1]; [6],1.66
same,INR 10 μL sample,[1]; [6],2.27
same,INR 20 μL sample,[1]; [6],4.58
same,INRc 5 μL sample,[1]; [6],1.81
same,INRc 10 μL sample,[1]; [6],2.29
same,INRc 20 μL sample,[1]; [6],3.73
same,INRo,[1]; [6],1.09
same,ΔINRc 10 μL − 5 μL,[1]; [6],0.48
same,ΔINRc 20 μL − 5 μL,[1]; [6],1.92
same,INR 5 μL sample,[1]; [7],1.87
same,INR 10 μL sample,[1]; [7],2.78
same,INR 20 μL sample,[1]; [7],6.06
same,INRc 5 μL sample,[1]; [7],2.08
same,INRc 10 μL sample,[1]; [7],2.86
same,INRc 20 μL sample,[1]; [7],4.88
same,INRo,[1]; [7],0.91
same,ΔINRc 10 μL − 5 μL,[1]; [7],0.78
same,ΔINRc 20 μL − 5 μL,[1]; [7],2.80
same,INR 10 μL sample,[1]; [8],3.50
same,INR 20 μL sample,[1]; [8],8.76
same,INRc 5 μL sample,[1]; [8],2.51
same,INRc 10 μL sample,[1]; [8],3.69
same,INRc 20 μL sample,[1]; [8],6.94
same,INRo,[1]; [8],0.74
same,ΔINRc 10 μL − 5 μL,[1]; [8],1.16
same,ΔINRc 20 μL − 5 μL,[1]; [8],4.43
same,5 uL-method NKP + 500 INR5c,"[2]; reagent P161, added Ca2+ 4 mM",1.18
same,20 uL-method NKP + 500 INR20c,"[2]; reagent P161, added Ca2+ 4 mM",1.83
same,20 uL-method NKP + 500 INR20c,"[2]; reagent P161, added Ca2+ 8 mM",2.15
same,20 uL-method NKP + 500 INR20c,"[2]; reagent P161, added Ca2+ 16 mM",3.15
same,20 uL-method NKP + 500 INR20c,"[2]; reagent P161, added Ca2+ 24 mM",3.30
same,5 uL-method NKP + 500 INR5c,"[2]; reagent P161, added Ca2+ 32 mM",1.49
same,20 uL-method NKP + 500 INR20c,"[2]; reagent P161, added Ca2+ 32 mM",3.38

# From US10613104B2, “Assay to determine anticoagulants in blood or blood plasma” (ZAFENA AB, priority 2014, dated 2020)
